The source made the active and inactive calls.
How the values were obtained:
[1] = HIV-1 Vif–A3G interaction blockers – biochemical, TR-FRET, GST-Vif 1-94, biotin-A3G peptide, dose response retest, primary screen (AID 1117319); format: functional;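 also: TR-FRET signal of purified GST-Vif binding a biotinylated A3G peptide; inhibitors lower the FRET signal by blocking Vif and A3G binding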
[2] = target: Luciferin 4-monooxygenase (Photinus pyralis, UniProt P08659); assay: inhibition of purified Photinus pyralis luciferase – biochemical, luminescence, dose response (AID 1891)
[3] = Luminescence Cell-Based Dose Confirmation HTS to Identify Inhibitors of Platelet Dense Granule Release. [Related pubchem assays: 1663 (Primary HTS), 1678 (Summary of Project)]; format: functional
[4] = Fluorescence Cell-Based Dose Response to Identify Inhibitors of Thrombin Receptor-Activating Peptide SFLLRN-Mediated P-Selectin Induction on Platelets. [Related pubchem assays: 1663 (Primary HTS), 1889 (retest at dose ), 1891 (counterscreen), 1678 (Project Summary)]; format: functional
[5] = NIH-3T3 fibroblast cytotoxicity, dose response, cytotoxicity control, cell-based, fluorescence, Alamar Blue, secondary assay (AID 2327); format: functional;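 also: NIH-3T3 mouse fibroblasts cultured with fluconazole at 8 µg/mL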
[6] = fluconazole-exposed Candida albicans growth modulators – fluorescence, retest, confirmation (AID 2467); format: functional, cell-based
Ephrin type-A receptor 4 = Ephrin type-A receptor 4 (Mus musculus, UniProt Q03137); assay: EphA4 ligand-binding antagonists – biochemical, colorimetric, mouse EphA4, primary screen (AID 689); format: functional
Cytochrome P450 1A2 = target: T1, Cytochrome P450 1A2 (Homo sapiens, UniProt P05177);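 also: PubChem cytochrome P450 panel assay, CYP1A2 panel member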
T1 sequence (P05177 whole entry): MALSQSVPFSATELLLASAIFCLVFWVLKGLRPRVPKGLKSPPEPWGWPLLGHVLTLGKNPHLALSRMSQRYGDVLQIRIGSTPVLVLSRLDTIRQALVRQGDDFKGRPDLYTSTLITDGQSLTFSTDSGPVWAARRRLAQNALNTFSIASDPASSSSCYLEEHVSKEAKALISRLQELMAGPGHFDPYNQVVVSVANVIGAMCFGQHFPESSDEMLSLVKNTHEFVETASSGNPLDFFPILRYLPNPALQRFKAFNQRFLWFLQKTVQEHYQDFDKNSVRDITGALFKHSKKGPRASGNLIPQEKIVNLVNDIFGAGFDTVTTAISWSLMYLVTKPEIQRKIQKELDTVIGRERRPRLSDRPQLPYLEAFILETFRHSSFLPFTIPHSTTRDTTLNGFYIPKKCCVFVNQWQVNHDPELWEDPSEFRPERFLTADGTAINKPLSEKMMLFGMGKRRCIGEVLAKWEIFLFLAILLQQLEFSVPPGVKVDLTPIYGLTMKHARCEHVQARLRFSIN

Cytochrome P450 2C9 = Cytochrome P450 2C9 (Homo sapiens, UniProt P11712)
[7] = viability of uninfected HEp-2 cells – cell-based, HTS, cytotoxicity control for RSV inhibitor project, dose response (AID 2410); format: functional; details: human respiratory syncytial virus
Genome polyprotein = Genome polyprotein (Hepatitis C virus, UniProt Q2Q167); assay: disruption of hepatitis C core self-association – biochemical, TR-FRET, dose response (AID 2159); parameters: species or system Hepacivirus hominis;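 also: blocks dimerization of HCV core protein measured by TR-FRET between tagged core106 pairs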
Estrogen receptor = Estrogen receptor (Homo sapiens, UniProt P03372);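 also: potency for inhibiting coactivator peptide recruitment to the receptor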
[8] = target: Diphosphomevalonate decarboxylase (Streptococcus pneumoniae serotype 2 (strain D39 / NCTC 7466), UniProt Q9FD53); assay: diphosphomevalonate decarboxylase inhibitor confirmation – biochemical, cuvette format, coupled NADH fluorescence (AID 1028); format: functional
[9] = glucagon-like peptide-1 release potency in STC-1, concentration-response, half-maximal inhibitory concentration in the STC-1 line (AID 1117345); format: functional, cell-based
[10] = Potency on glucagon-like peptide 1 release, dose-response in NCI-H716 cell line, half maximal inhibitory concentration (AID 1117344); format: functional, cell-based
[11] = Late-stage results from the probe development effort to identify antagonists of arginine vasopressin receptor 1a (AVPR1a): fluorescence-based cell-based dose response AVPR1a inhibition assay.; format: functional
Vasopressin V1b receptor = Vasopressin V1b receptor (Homo sapiens, UniProt P47901); assay: Late-stage results from the probe development effort to identify antagonists of arginine vasopressin receptor 1a (AVPR1a): fluorescence-based cell-based dose response AVPR1b inhibition counterscreen assay.; format: functional
Vasopressin V2 receptor = Vasopressin V2 receptor (Homo sapiens, UniProt P30518); assay: Late-stage results from the probe development effort to identify antagonists of arginine vasopressin receptor 1a (AVPR1a): fluorescence-based cell-based dose response AVPR2 inhibition counterscreen assay.; format: functional
[12] = Late-stage results from the probe development effort to identify antagonists of arginine vasopressin receptor 1a (AVPR1a): fluorescence-based cell-based dose response OXTR inhibition counterscreen assay.; format: functional
[13] = target: T2, Low molecular weight phosphotyrosine protein phosphatase (Homo sapiens, UniProt P24666); assay: inhibition of LMPTP-A enzymatic activity – biochemical, OMFP substrate, fluorescence intensity, set 2, dose response (AID 743307); format: functional
T2 sequence (P24666 whole entry): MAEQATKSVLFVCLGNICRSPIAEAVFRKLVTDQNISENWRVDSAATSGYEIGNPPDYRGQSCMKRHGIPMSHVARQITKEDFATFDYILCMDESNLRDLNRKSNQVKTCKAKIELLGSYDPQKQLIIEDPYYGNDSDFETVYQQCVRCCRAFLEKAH

[14] = target: T2, Low molecular weight phosphotyrosine protein phosphatase; assay: inhibition of human LMPTP enzyme activity – biochemical, absorbance, pNPP substrate, LMPTP-A isoform, set 2, orthogonal assay, dose response (AID 743308); format: functional
P388/ADR = assay: cells; format: functional; details: Mus musculus
SN12K1 = assay: cells; format: functional; details: Homo sapiens
P388 = assay: cells; format: functional; details: Mus musculus
[15] = rise of 2N DNA cells, HeLa – IC50, dose response (AID 1117349); format: functional, cell-based
[16] = SNU-C1 cell viability reduction, dose response, CellTiter-Glo luminescence (AID 1117323); format: functional, cell-based
[17] = rise of 4N DNA cells, HeLa – IC50, dose response (AID 1117351); format: functional, cell-based

Chain of Diphosphomevalonate decarboxylase (Q9FD53 whole entry): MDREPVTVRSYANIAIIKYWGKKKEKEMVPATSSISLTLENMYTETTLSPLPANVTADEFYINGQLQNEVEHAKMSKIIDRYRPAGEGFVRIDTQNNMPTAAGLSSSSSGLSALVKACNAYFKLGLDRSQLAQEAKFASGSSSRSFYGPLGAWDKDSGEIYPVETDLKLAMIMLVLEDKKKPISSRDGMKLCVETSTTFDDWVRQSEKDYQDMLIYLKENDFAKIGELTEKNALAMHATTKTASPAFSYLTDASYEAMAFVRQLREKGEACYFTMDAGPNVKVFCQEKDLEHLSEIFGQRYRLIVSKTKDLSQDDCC
Chain of Estrogen receptor (P03372 whole entry): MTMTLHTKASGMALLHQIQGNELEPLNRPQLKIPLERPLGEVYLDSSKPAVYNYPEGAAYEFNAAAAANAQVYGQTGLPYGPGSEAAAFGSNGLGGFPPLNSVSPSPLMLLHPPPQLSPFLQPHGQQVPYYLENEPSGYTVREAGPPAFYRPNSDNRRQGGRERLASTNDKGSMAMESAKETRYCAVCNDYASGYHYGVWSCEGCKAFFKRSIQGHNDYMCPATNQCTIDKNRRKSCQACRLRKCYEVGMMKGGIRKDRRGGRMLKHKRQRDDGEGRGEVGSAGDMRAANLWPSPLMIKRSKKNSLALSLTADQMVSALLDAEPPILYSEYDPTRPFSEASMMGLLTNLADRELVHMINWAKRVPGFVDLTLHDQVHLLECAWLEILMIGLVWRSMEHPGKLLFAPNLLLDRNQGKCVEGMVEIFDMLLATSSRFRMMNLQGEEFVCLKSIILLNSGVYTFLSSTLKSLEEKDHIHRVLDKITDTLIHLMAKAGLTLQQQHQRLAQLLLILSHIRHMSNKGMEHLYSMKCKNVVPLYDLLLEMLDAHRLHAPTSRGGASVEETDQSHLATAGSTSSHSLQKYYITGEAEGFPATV
Chain of Vasopressin V1b receptor (P47901 whole entry): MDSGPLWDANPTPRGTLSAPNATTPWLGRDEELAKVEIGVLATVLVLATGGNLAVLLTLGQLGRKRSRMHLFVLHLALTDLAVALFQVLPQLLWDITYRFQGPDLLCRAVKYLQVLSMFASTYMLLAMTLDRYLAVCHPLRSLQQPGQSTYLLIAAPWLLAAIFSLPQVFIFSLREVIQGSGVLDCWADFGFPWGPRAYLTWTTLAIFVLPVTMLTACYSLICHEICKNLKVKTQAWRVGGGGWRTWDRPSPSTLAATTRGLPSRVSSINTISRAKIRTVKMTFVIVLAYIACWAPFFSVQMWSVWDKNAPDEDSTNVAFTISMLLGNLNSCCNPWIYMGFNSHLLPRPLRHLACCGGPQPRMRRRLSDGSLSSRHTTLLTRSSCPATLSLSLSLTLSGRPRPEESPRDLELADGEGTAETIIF
Chain of Vasopressin V2 receptor (P30518 whole entry): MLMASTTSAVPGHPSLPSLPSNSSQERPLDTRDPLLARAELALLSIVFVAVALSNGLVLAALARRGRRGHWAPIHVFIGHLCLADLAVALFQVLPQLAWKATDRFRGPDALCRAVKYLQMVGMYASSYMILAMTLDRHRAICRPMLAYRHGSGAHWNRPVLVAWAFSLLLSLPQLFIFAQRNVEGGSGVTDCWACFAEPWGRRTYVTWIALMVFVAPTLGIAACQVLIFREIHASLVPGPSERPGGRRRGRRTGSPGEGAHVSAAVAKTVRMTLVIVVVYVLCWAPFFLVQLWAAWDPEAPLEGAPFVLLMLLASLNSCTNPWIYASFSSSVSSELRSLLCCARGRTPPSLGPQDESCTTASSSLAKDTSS
Chain of Cytochrome P450 2C9 (P11712 whole entry): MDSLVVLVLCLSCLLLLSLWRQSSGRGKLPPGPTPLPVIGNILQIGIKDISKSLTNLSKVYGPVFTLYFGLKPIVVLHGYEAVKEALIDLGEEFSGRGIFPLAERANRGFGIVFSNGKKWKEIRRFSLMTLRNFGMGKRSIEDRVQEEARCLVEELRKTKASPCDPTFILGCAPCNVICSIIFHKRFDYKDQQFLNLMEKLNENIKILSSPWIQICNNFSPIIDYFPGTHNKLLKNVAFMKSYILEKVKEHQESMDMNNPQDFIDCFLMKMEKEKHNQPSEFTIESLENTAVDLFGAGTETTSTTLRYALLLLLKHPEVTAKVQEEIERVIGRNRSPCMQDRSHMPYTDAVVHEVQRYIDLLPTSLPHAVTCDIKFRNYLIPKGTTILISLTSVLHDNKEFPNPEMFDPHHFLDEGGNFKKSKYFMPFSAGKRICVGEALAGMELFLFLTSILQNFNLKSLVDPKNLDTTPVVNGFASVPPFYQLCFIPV
Chain of Genome polyprotein (Q2Q167 whole entry): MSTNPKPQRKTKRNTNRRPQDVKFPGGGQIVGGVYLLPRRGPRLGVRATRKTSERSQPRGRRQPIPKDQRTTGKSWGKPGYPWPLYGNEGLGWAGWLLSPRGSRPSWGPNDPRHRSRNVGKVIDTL
Chain of Ephrin type-A receptor 4 (Q03137 whole entry): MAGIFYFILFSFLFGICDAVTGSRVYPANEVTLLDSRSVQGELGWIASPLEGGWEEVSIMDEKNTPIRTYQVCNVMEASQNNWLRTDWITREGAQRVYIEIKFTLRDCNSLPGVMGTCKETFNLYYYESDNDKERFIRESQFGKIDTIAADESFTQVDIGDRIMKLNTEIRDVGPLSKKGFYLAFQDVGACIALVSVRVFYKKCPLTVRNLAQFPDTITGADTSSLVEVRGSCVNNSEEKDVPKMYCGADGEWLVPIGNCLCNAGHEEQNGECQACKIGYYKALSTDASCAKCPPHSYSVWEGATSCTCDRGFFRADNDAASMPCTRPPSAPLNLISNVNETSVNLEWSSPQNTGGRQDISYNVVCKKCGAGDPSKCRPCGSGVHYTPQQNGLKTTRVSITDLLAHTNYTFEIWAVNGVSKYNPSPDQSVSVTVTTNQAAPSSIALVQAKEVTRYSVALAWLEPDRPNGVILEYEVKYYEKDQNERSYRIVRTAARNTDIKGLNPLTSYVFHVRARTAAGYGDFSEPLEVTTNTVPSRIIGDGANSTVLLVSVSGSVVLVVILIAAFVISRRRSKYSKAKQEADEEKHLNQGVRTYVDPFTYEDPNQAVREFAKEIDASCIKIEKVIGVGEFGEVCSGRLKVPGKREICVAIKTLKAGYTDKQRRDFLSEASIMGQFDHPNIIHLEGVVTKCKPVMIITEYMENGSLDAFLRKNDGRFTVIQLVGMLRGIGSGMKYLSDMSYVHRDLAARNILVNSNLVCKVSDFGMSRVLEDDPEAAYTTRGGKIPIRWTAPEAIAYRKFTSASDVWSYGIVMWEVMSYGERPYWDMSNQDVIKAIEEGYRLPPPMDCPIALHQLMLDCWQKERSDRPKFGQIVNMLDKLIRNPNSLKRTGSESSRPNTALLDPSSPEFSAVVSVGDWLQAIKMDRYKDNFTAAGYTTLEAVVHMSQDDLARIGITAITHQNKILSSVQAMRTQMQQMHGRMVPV
Chain of Luciferin 4-monooxygenase (P08659 whole entry): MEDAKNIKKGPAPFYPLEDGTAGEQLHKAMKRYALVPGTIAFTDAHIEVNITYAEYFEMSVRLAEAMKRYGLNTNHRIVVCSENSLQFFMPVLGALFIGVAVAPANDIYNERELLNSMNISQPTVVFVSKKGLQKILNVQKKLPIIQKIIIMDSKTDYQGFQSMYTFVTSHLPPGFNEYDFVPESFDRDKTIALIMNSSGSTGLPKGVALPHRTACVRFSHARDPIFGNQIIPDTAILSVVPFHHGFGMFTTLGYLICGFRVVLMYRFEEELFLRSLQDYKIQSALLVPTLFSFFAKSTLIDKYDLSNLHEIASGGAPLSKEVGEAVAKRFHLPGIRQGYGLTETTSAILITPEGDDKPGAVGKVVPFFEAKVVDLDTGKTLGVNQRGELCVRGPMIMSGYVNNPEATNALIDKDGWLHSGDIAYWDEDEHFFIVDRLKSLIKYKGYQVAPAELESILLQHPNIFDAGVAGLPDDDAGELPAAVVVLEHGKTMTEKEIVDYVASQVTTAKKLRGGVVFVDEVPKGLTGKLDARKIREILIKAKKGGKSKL

In the case of `Cc1noc(C)c1C(=O)N1CCc2ccccc2C1`, the IC50 [1] is reported as > 100 µM (active).
In the case of `COc1ccc(C(=O)Nc2ccc(N3CCOCC3)cc2)cc1OC`, the EC50 [2] is reported as 24.2 µM (active), the EC50 [3] is reported as 1.95 µM (active) and the EC50 [4] is reported as > 100 µM (not active).
For `O=C(O)c1ccccc1C(=O)NNc1ccc(F)cc1`, the EC50 [5] was 25.5 µM (active), the EC50 [6] was > 38 µM (not active) and the IC50 (Ephrin type-A receptor 4) was > 100 µM (not active). For the same compound, the AC50 (Cytochrome P450 1A2) was 20 µM (inconclusive) and the AC50 (Cytochrome P450 2C9) was 0.0251 µM (inconclusive).
For `CCn1c(SCC(=O)Nc2ccc3c(c2)c2ccccc2n3CC)nnc1-c1ccco1`, the CC50 [7] was 48.9 µM (active), the IC50 (Genome polyprotein) was > 49.8 µM (not active) and the IC50 (Estrogen receptor) was > 50 µM (not active).
For `CCN(CC)C(=O)c1cccc(-n2sc3ccccc3c2=O)c1`, the IC50 [8] was 16.7 µM (active).
In the case of `CCCCCCCC/C=C\CCCCCCCCN`, the IC50 [9] is reported as > 40 µM (inactive) and the IC50 [10] is reported as 14.8 µM (inactive).
In the case of `O=C(C1CCN(c2ccc(C(F)(F)F)cn2)CC1)N(CC1CC1)c1ccc(Cl)cc1`, the IC50 [11] is reported as 0.123 µM (active), the IC50 (Vasopressin V1b receptor) is reported as 31.7 µM (inactive) and the IC50 (Vasopressin V2 receptor) is reported as 19.3 µM (inactive). The IC50 [12] was 12.6 µM (inactive).
With `c1ccc(-c2nc(N3CCSCC3)c3ccccc3n2)cc1` the IC50 [13] was > 80 µM (inactive) and the IC50 [14] was > 80 µM (inactive).
With `CN(Cc1cnc2nc(N)nc(N)c2n1)c1ccc(C(=O)N[C@@H](CCC(=O)O)C(=O)O)cc1` [METHOTREXATE] the GI50 (P388/ADR) was 0.025 µM (active), the GI50 (SN12K1) was 0.025 µM (active) and the GI50 (P388) was 0.025 µM (active). The IC50 [15] was > 10 µM (inactive), the IC50 [16] was > 20 µM (inactive) and the IC50 [17] was > 10 µM (inactive).

From ChEMBL document CHEMBL1201862, “PubChem BioAssay data set” (2004)
